These results are taken from patent US8673591B2, “Genetic incorporation of 3-aminotyrosine into reductases” (The Scripps Research Institute, priority 2007, dated 2014).

Like-named read-outs stand apart in the source and are kept apart here.

Series [1] deals with DH10B E. coli cells. Nature of the series: Toxicity of NH2Y: growth of E. coli in GMML medium and on agar plates. The series is classed as cell-based. The text has this:
(§1) Toxicity and uptake of NH2Y. Evolution of an NH2Y-specific aminoacyl-tRNA synthetase (RS) requires that NH2Y is taken up by E. coli, that it is not toxic, and that it is not incorporated into proteins by any endogenous RSs. All three requirements were met by NH2Y. […] The presence of DTT however, caused cells to grow at a rate 25-35% more slowly than those in the presence of only NH2Y or absence of NH2Y/DTT.

Series [2] deals with T1, E. coli ribonucleotide reductase (RNR) (Escherichia coli, UniProt P00452).
T1 construct: made in house; host or cells: E. coli DH10B (NH2Y-α2s)
Particulars: inactivation of wt α2β2 by N3ADP/dGTP; 20 s time scale; cited from earlier work.

For series [3] the following is noted: cited from earlier work.
For series [4], the system named is DH10B E. coli cells. Nature of the series: Qualitative assay for cellular uptake of NH2Y by LC-MS. The series is classed as cell-based. Particulars: 1 mM NH2Y with or without 0.1 mM DTT. The method, then: Qualitative assay for cellular uptake of NH2Y by LC-MS. The uptake assay was performed as previously described with minor modifications.^48 DH10B E. coli cells were grown to saturation at 37° C. in GMML in the presence of 1 mM NH2Y and 0.1 mM DTT and subsequently harvested and lysed as outlined previously. Chromatography of the crude extract was performed on a Zorbax SB-C18 (5 μm, 4.6×150 mm) column with a linear gradient from 5% to 25% MeCN in 0.1% TFA solution over 8 min at 0.5 mL/min. Under these conditions, NH2Y elutes at ˜13% MeCN. For HPLC-ESI-MS analysis, NH2Y standard solutions were prepared in water.
as §1

On to `O[C@H](CS)[C@H](O)CS` (racemic) [DTT, DL-dithiothreitol], for which the slower growth rate in series [1] (Escherichia coli, 0.1 mM) is 25-35%.

In the case of `[N-]=[N+]=N[C@@H]1[C@H](O)[C@@H](COP(=O)(O)OP(=O)(O)O)O[C@H]1n1cnc2c(N)ncnc21` [N3ADP, 2′-Azido-2′-deoxyadenosine-5′-diphosphate], the “initial Y122• lost (equivalent amount of N• formed)” value in series [2] is recorded as 50-60%.

Take `Nc1cc(C[C@H](N)C(=O)O)ccc1O` [NH2Y, 3-aminotyrosine]: in series [3] (pH 7.0), the reduction potential is 0.64 V and the “reduction potential lower than that of Y” value was 0.19 V. Besides, in series [3] (pH 7), the “reduction potential lower than that of Y” value is 190 mV. Further, the “cellular uptake (HPLC and ESI-MS of cell extracts)” value in series [4] is recorded as “observed in all cell extracts”. Moreover, the “growth rates in the presence of substance” value in series [1] (NH2Y 1 mM, GMML medium) is given as “not significantly affected”.
